# Data from patent US8324227B2, “Thieno[2,3-D]-pyrimidin-4(3H)-one compounds with antifungal properties and process thereof” (FDC Limited, priority 2008, dated 2012).
# Tests used:
# Assay in all cases: Antifungal susceptibility, MIC by broth macro-dilution method
# C. albicans (ATCC 24433) = assay type: cell-based, Candida albicans; details: end points after 48 hours, NI till x = no inhibition up to x; for MIC: Candida albicans, ATCC24433, RPMI 1640 medium with MOPS buffer, read-out: MIC against fungi, C. albicans (ATCC 24433); for MIC against fungi, C. albicans (ATCC 24433): RPMI 1640 medium with MOPS buffer
# Description: (§1) In vitro evaluation of antifungal activity was performed by determining the minimum inhibitory concentration (MIC). Anti-fungal susceptibility testing of these anti-fungal compounds was done by broth dilution method using RPMI 1640 medium with MOPS buffer. Known anti-fungal agents like fluconazole and amphotericin-B were used as positive control. End points were determined after 48 hours visually and by using spectrophotometer wherever necessary. Different dilutions were, tried and various sets of experiments performed.
# [1] = tested on: F. proliferatum (ATCC 10052); assay type: cell-based, Fusarium proliferatum; details: end points after 48 hours, NI till x = no inhibition up to x; for MIC: Fusarium proliferatum, ATCC10052, RPMI 1640 medium with MOPS buffer, read-out: MIC against fungi, F. proliferatum (ATCC 10052); for MIC against fungi, F. proliferatum (ATCC 10052): RPMI 1640 medium with MOPS buffer
# Description: as §1
# A. niger (ATCC 16404) = assay type: cell-based, Aspergillus niger; details: end points after 48 hours, NI till x = no inhibition up to x; for MIC: Aspergillus niger, ATCC16404, RPMI 1640 medium with MOPS buffer, read-out: MIC against fungi, A. niger (ATCC 16404); for MIC against fungi, A. niger (ATCC 16404): RPMI 1640 medium with MOPS buffer
# Description: as §1
SMILES,MIC (C. albicans (ATCC 24433)) [µg/mL],MIC [1] [µg/mL],MIC (A. niger (ATCC 16404)) [µg/mL],"MIC against fungi, C. albicans (ATCC 24433) (C. albicans (ATCC 24433))","MIC against fungi, F. proliferatum (ATCC 10052) [1]","MIC against fungi, A. niger (ATCC 16404) (A. niger (ATCC 16404))"
"CCCCc1c(CCC)sc2ncn(CC(O)(Cn3cncn3)c3ccc(F)cc3F)c(=O)c12 (stereo not drawn) [Compound 1-A05, 5-n-Butyl-3-[2-(2,4-difluorophenyl)-2-hydroxy-3-[1,2,4]-triazol-1-yl-propyl]-6-n-propyl-thieno[2,3-d]pyrimidin-4(3H)-one]",2 to 4,> 4,> 4,,,
"O=c1c2c3c(sc2ncn1CC(O)(Cn1cncn1)c1ccc(F)cc1F)CCC3 (stereo not drawn) [Compound 1-A07, 3-[2-(2,4-Difluorophenyl)-2-hydroxy-3-[1,2,4]-triazol-1-yl-propyl]-3,5,6,7-tetrahydrocyclopenta[4,5]thieno[2,3-d]pyrimidin-4(3H)-one]",,,,0.25 to 0.5 µg/mL,NI till 2 μg/ml,NI till 2 μg/ml
"CCCCCc1c(C)sc2ncn(CC(O)(Cn3cncn3)c3ccc(F)cc3F)c(=O)c12 (stereo not drawn) [Compound 1-A08, 3-[2-(2,4-Difluorophenyl)-2-hydroxy-3-[1,2,4]triazol-1-yl-propyl]-6-methyl-5-npentyl-thieno[2,3-d]pyrimidin-4(3H)-one]",,,,2 to 4 µg/mL,NI till 4 μg/ml,NI till 4 μg/ml
"CCCCCc1sc2ncn(CC(O)(Cn3cncn3)c3ccc(F)cc3F)c(=O)c2c1C (stereo not drawn) [Compound 1-A11, 3-[2-(2,4-Difluorophenyl)-2-hydroxy-3-[1,2,4]triazol-1-yl-propyl]-5-methyl-6-npentyl-thieno[2,3-d]pyrimidin-4(3H)-one]",,,,1 to 2 µg/mL,NI till 2 μg/ml,NI till 2 μg/ml
"CC(=O)OCCCCCCCc1cc2c(=O)n(CC(O)(Cn3cncn3)c3ccc(F)cc3F)cnc2s1 (stereo not drawn) [Compound 1-A12, 6-(7-Acetoxyheptyl)-3-[2-(2,4-difluorophenyl)-2-hydroxy-3-[1,2,4]-triazol-1-ylpropyl]-thieno[2,3-d]pyrimidin-4(3H)-one]",0.12 to 0.25,> 2,> 2,,,
"CCCCCCCCCCc1cc2c(=O)n(CC(O)(Cn3cncn3)c3ccc(F)cc3F)cnc2s1 (stereo not drawn) [Compound 1-A16, 6-n-Decyl-3-[2-(2,4-difluorophenyl)-2-hydroxy-3-[1,2,4]triazol-1-yl-propyl]thieno[2,3-d]pyrimidin-4(3H)-one]",1 to 2,> 2,> 2,,,
"O=c1c2c3c(sc2ncn1CC(O)(Cn1cncn1)c1ccc(F)cc1F)CCCCCCCCCC3 (stereo not drawn) [Compound 1-A19, 3-[2-(2,4-Difluorophenyl)-2-hydroxy-3-[1,2,4]-triazol-1-yl-propyl]3,5,6,7,8,9,10,11,12,13,14-undecahydrocyclododeca[4,5]thieno[2,3-d]pyrimidin-4(3H)-one]",,,,NI till 2 μg/ml,NI till 2 μg/ml,NI till 2 μg/ml
"O=c1c2cc(CCCCO)sc2ncn1CC(O)(Cn1cncn1)c1ccc(F)cc1F (stereo not drawn) [Compound 1-A23, 3-[2-(2,4-Difluorophenyl)-2-hydroxy-3-[1,2,4]-triazol-1-yl-propyl]-6-(4-hydroxybutyl)-thieno[2,3-d]pyrimidin-4(3H)-one]",1 to 2,> 64,> 64,,,
"CC(C)(C)OC(=O)NCC(=O)OCCCCc1cc2c(=O)n(CC(O)(Cn3cncn3)c3ccc(F)cc3F)cnc2s1 (stereo not drawn) [Compound 1-A24, 3-[2-(2,4-Difluorophenyl)-2-hydroxy-3-[1,2,4]triazol-1-yl-propyl]-6-(4-N-Bocaminoacetyloxybutyl)-thieno[2,3-d]pyrimidin-4(3H)-one]",,,,0.5 to 1 µg/mL,NI till 16 μg/ml,NI till 16 μg/ml
"NCC(=O)OCCCCc1cc2c(=O)n(CC(O)(Cn3cncn3)c3ccc(F)cc3F)cnc2s1 (stereo not drawn) [Compound 1-A25, 3-[2-(2,4-Difluorophenyl)-2-hydroxy-3-[1,2,4]-triazol-1-yl-propyl]-6-(4-aminoacetyloxybutyl)-thieno[2,3-d]pyrimidin-4(3H)-one]",4 to 8,> 8,> 8,,,
"CC(=O)OCCCc1cc2c(=O)n(CC(O)(Cn3cncn3)c3ccc(F)cc3F)cnc2s1 (stereo not drawn) [Compound 1-A26, 3-[2-(2,4-Difluorophenyl)-2-hydroxy-3-[1,2,4]-triazol-1-yl-propyl]-6-(3-acetoxypropyl)-thieno[2,3-d]pyrimidin-4(3H)-one]",1 to 2,> 64,> 64,,,

# The remaining lines, values ahead:
MIC (C. albicans (ATCC 24433)) [µg/mL],MIC [1] [µg/mL],MIC (A. niger (ATCC 16404)) [µg/mL],"MIC against fungi, C. albicans (ATCC 24433) (C. albicans (ATCC 24433))","MIC against fungi, F. proliferatum (ATCC 10052) [1]","MIC against fungi, A. niger (ATCC 16404) (A. niger (ATCC 16404))",SMILES
0.06 to 0.12,> 4,> 4,,,,"O=c1c2cc(CCCCOCc3ccccc3)sc2ncn1CC(O)(Cn1cncn1)c1ccc(F)cc1F (stereo not drawn) [Compound 1-A01, 6-(4-Benzyloxybutyl)-3-[2-(2,4-difluorophenyl)-2-hydroxy-3-[1,2,4]triazol-1-ylpropyl]-thieno[2,3-d]pyrimidin-4(3H)-one]"
0.06 to 0.12,> 4,> 4,,,,"O=c1c2cc(CCCOCc3ccccc3)sc2ncn1CC(O)(Cn1cncn1)c1ccc(F)cc1F (stereo not drawn) [Compound 1-A02, 6-(3-Benzyloxypropyl)-3-[2-(2,4-difluorophenyl)-2-hydroxy-3-[1,2,4]-triazol-1-ylpropyl]-thieno[2,3-d]pyrimidin-4(3H)-one]"
0.03 to 0.06,> 2,> 2,,,,"CCCCCCc1cc2c(=O)n(CC(O)(Cn3cncn3)c3ccc(F)cc3F)cnc2s1 (stereo not drawn) [Compound 1-A03, 3-[2-(2,4-Difluorophenyl)-2-hydroxy-3-[1,2,4]-triazol-1-yl-propyl]-6-(n-hexyl)-thieno[2,3-d]pyrimidin-4(3H)-one]"
0.03 to 0.06,> 4,> 4,,,,"CCCCCc1cc2c(=O)n(CC(O)(Cn3cncn3)c3ccc(F)cc3F)cnc2s1 (stereo not drawn) [Compound 1-A04, 3-[2-(2,4-Difluorophenyl)-2-hydroxy-3-[1,2,4]-triazol-1-yl-propyl]-6-n-pentylthieno[2,3-d]pyrimidin-4(3H)-one]"
0.06 to 0.12,> 2,> 2,,,,"CCCCCCCc1cc2c(=O)n(CC(O)(Cn3cncn3)c3ccc(F)cc3F)cnc2s1 (stereo not drawn) [Compound 1-A06, 3-[2-(2,4-Difluorophenyl)-2-hydroxy-3-[1,2,4]-triazol-1-yl-propyl]-6-n-heptylthieno[2,3-d]pyrimidin-4(3H)-one]"
0.25 to 0.5,> 8,> 8,,,,"O=c1c2c3c(sc2ncn1CC(O)(Cn1cncn1)c1ccc(F)cc1F)CCCC3 (stereo not drawn) [Compound 1-A09, 3-[2-(2,4-Difluorophenyl)-2-hydroxy-3-[1,2,4]-triazol-1-yl-propyl]-5,6,7,8-tetrahydrobenzothieno[2,3-d]pyrimidin-4(3H)-one]"
1 to 2,> 2,> 2,,,,"CCCCCCc1sc2ncn(CC(O)(Cn3cncn3)c3ccc(F)cc3F)c(=O)c2c1C (stereo not drawn) [Compound 1-A10, 3-[2-(2,4-Difluorophenyl)-2-hydroxy-3-[1,2,4]-triazol-1-yl-propyl]-6-n-hexyl-5-methyl-thieno[2,3-d]pyrimidin-4(3H)-one]"
0.12 to 0.25,> 16,> 16,,,,"O=c1c2cc(CCCCCCCO)sc2ncn1CC(O)(Cn1cncn1)c1ccc(F)cc1F (stereo not drawn) [Compound 1-A13, 3-[2-(2,4-Difluorophenyl)-2-hydroxy-3-[1,2,4]triazol-1-yl-propyl]-6-(7-hydroxyheptyl)-thieno[2,3-d]pyrimidin-4(3H)-one]"
0.5 to 1,> 2,> 2,,,,"O=c1c2c(CCc3ccccc3)csc2ncn1CC(O)(Cn1cncn1)c1ccc(F)cc1F (stereo not drawn) [Compound 1-A14, 3-[2-(2,4-Difluorophenyl)-2-hydroxy-3-[1,2,4]triazol-1-yl-propyl]-5(2-phenylethyl)-thieno[2,3-d]pyrimidin-4(3H)-one]"
1 to 2,> 4,> 4,,,,"Cc1c(Cc2ccccc2)sc2ncn(CC(O)(Cn3cncn3)c3ccc(F)cc3F)c(=O)c12 (stereo not drawn) [Compound 1-A15, 6-Benzyl-3-[2-(2,4-difluorophenyl)-2-hydroxy-3-[1,2,4]-triazol-1-yl-propyl]-5-methyl-thieno[2,3-d]pyrimidin-4(3H)-one]"
0.25 to 0.5,> 4,> 4,,,,"CCCCCCCCCc1cc2c(=O)n(CC(O)(Cn3cncn3)c3ccc(F)cc3F)cnc2s1 (stereo not drawn) [Compound 1-A17, 3-[2-(2,4-Difluorophenyl)-2-hydroxy-3-[1,2,4]-triazol-1-yl-propyl]-6-n-nonylthieno[2,3-d]pyrimidin-4(3H)-one]"
0.06 to 0.12,> 32,> 32,,,,"CCCc1cc2c(=O)n(CC(O)(Cn3cncn3)c3ccc(F)cc3F)cnc2s1 (stereo not drawn) [Compound 1-A18, 3-[2-(2,4-Difluorophenyl)-2-hydroxy-3-[1,2,4]-triazol-1-yl-propyl]-6-(n-propyl)-thieno[2,3-d]pyrimidin-4(3H)-one]"
0.06 to 0.12,> 16,> 16,,,,"CCc1cc2c(=O)n(CC(O)(Cn3cncn3)c3ccc(F)cc3F)cnc2s1 (stereo not drawn) [Compound 1-A22, 3-[2-(2,4-Difluorophenyl)-2-hydroxy-3-[1,2,4]triazol-1-yl-propyl]-6-ethylthieno[2,3-d]pyrimidin-4(3H)-one]"
